We go through 45 molecules from patent publication US20240307409A1, “ARGININE METHYLTRANSFERASE INHIBITOR AND USE THEREOF” (Cytosinlab Therapeutics Co., Ltd., priority 2021, published 2024).

The target of assay [1] is PRMT1 (Homo sapiens, UniProt Q99873). The assay can be described thus: PRMT1 enzyme activity test. In kind it is biochemical. Particulars: 0.5 nM PRMT1, 3H-SAM, peptide. The method, boiled down: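 Radiometric methylation assay: 0.5 nM PRMT1 preincubated 15 min at room temperature with compound (10-point 3-fold series, 1% DMSO) in pH 8.0 Tris buffer with Tween-20 and DTT. 0.25 uM ³H-SAM and 0.1 uM biotinylated peptide then reacted 120 min. Product captured on streptavidin FlashPlate and counted; IC50 from four-parameter fit of % inhibition.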
Sequence of PRMT1 (Q99873 whole entry): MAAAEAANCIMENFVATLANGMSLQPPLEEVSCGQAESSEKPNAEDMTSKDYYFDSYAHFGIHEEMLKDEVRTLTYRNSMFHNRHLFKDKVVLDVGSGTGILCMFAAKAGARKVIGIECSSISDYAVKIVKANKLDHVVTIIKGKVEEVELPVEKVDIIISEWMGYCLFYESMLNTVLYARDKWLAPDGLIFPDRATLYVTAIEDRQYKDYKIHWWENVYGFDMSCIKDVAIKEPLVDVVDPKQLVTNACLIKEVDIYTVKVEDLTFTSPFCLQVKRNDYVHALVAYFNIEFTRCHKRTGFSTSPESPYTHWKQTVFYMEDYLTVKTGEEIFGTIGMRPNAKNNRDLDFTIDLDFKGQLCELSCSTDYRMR

Assay [2] concerns Toledo cells. Nature of the assay: Toledo cell proliferation inhibition assay. It is filed as cell-based. Particulars: Homo sapiens, Toledo, 144 h; six-day assay, CellTiter-Glo. The method, boiled down: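 Toledo cells seeded at 2000 cells/well in RPMI 1640 + 10% FBS and incubated with compound for six days at 37° C, 5% CO2. Viability was then read by CellTiter-Glo luminescence after 30 min orbital mixing.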
For orientation: In ATP-based viability assays light output follows the ATP content of the culture.

Assay [3] deals with MMA in RKO cells. Nature of the assay: RKO In Cell Western assay (MMA primary antibody). In kind it is cell-based. The settings on record: Homo sapiens, 72 hours, read-out: RKO ICW_EC30. The protocol: RKO was seeded at a concentration of 20,000 cells/ml into a polylysine-coated 96-well plate (Corning #3599), with 2,000 cells per well and 100 μL of culture mediumper well. 500 nL of compound was added to the 96-well plate. 3) The 96-well plate was incubated in a 37° C., 5% CO2 incubator for 72 hours. After three days, the 96-well plate was taken from the incubator, 100 μL of 8% paraformaldehyde solution was added to each well, and the plate was placed at room temperature for 15 min. After 15 min, the liquid in the plate was shaken out and the plate was washed three times with phosphate buffer (1*PBS). The liquid in the plate was shaken out and 200 μL of membrane-breaking buffer (0.1% (v/v) Tween-20 in PBS) was added and the plate was incubated on a shaker for 30 min. After half an hour, the liquid in the plate was shaken out, and blocking buffer was added and the plate was incubated for two hours at room temperature with shaking. After that, the liquid in the plate was shaken off, and the blocking solution containing primary antibody (MMA primary antibody, CST #8711S, 1:1000 v/v) was added to the 96-well plate and the plate was incubated at 4° C. overnight with shaking. The next day, the plate was washed three times with washing solution (0.05% (v/v) Tween-20 in PBS), and a blocking solution containing secondary antibody (goat anti-rabbit IgG (H+L) Invitrogen #31460, 1:10,000 v/v) was added and the plate was incubated for two hours at room temperature. Afterwards, the 96-well plate was washed four times with washing solution. The TMB mixture was added to the 96-well plate and then the plate was incubated for 15 minutes at room temperature with shaking. After that, the reaction terminating solution was added, and the value was read at OD450 nm using an microplate reader. The plate was washed three times with washing solution, and 50 μL of janusgreen staining solution was added, and the plate was incubated for 15 minutes at room temperature with shaking. The reaction was washed ten times with water until no color residue was left. 200 μL of 0.5 M hydrochloric acid solution was added to each well and the plate was incubated for 10 min at room temperature. The value was read at OD595 nm using Flexstation.
Firstly, the ratio OD450/OD595 was calculated for each well
Each plate had six DMSO negative control groups (ZPE) and six 10 μM positive control groups (HPE), and the average of the control group ratios was used to determine the percentage of activation for each test well. The compounds to be tested were triple diluted with DMSO for a total of 8 concentration points with a starting concentration of 5 μM. The equation for calculating the activation percentage of each test well was: […]

Turning to `CNCCN(C)Cc1cc(F)ccc1C1CCc2ccc(C(F)(F)F)cc2CC1` (centres unmarked) [P001], the IC50 (as a rule, the concentration that inhibits the measured activity by half) is below 50 nM in assay [1] and below 1000 nM in assay [2]. Further, the EC30 in assay [3] is 250 to 2500 nM.
Take `CNCCN(C)Cc1ccc(F)cc1[C@H]1CC[C@H](c2cccc(C)c2)CC1` [P003]: the IC50 in assay [1] is below 50 nM; in assay [2] it was below 1000 nM. The EC30 in assay [3] is below 250 nM.
For `CNCCN(C)Cc1cc(F)ccc1[C@H]1CC[C@H](c2cccc(C)c2)CC1` [P005], in that order: below 50 nM, below 1000 nM and 250 to 2500 nM.
For `CNCCN(C)Cc1ccc(F)cc1C1CCc2cc(F)c(F)cc2CC1` [P007], in that order: below 50 nM, below 1000 nM and below 250 nM.
For `CNCCN(C)Cc1ccc(F)cc1C1CCc2cc(F)cc(F)c2CC1` (centres unmarked) [P008], the IC50 in assay [1] is below 50 nM; in assay [2] it was below 1000 nM. Also, in assay [3], the EC30 was in the range of 250 to 2500 nM.
For `CNCCN(C)Cc1cc(F)ccc1C1CCc2cc(F)c(F)cc2CC1` [P009] the same measures were below 50 nM, below 1000 nM and 250 to 2500 nM.
For `CC[C@H]1CC[C@@H](c2ccccc2CN(C)CCNC)CC1` [P014] the same measures were below 50 nM, below 1000 nM and 250 to 2500 nM.
For `CCC1CCC(c2ccccc2CN(C)CCNC)CC1` (centres unmarked) [P015] the same measures were below 50 nM, below 1000 nM and 250 to 2500 nM.
Regarding `CNCCN(C)Cc1ccc(F)cc1C1CCN(c2cccc(C)c2)CC1` [P021], the IC50 was below 50 nM in assay [1] and below 1000 nM in assay [2]. Further, the EC30 in assay [3] was below 250 nM.
Turning to `CNCCN(C)Cc1ccccc1C1CCN(c2cccc(C)c2)CC1` [P022], the results for the IC50 in assay [1] and in assay [2] were below 50 nM and below 1000 nM, respectively. The EC30 in assay [3] is below 250 nM.
With `CNCCN(C)Cc1ccccc1C1CCC2(CC1)CC(C)(C)CO2` (centres unmarked) [P039], the 50% inhibitory concentration (IC50) is below 50 nM in assay [1] and below 1000 nM in assay [2]. The EC30 in assay [3] was in the range of 250 to 2500 nM.
For `CNCCN(C)Cc1ncccc1C1CCN(c2cccc(C(C)(C)C)c2)CC1` [P044] the same measures were below 50 nM, below 1000 nM and 250 to 2500 nM.
Regarding `CCOC[C@H]1CC[C@H](c2ccccc2CN(C)CCNC)CC1` [P049], the IC50 is below 50 nM in assay [1] and below 1000 nM in assay [2]. Besides, the EC30 in assay [3] is below 250 nM.
For `CNCCN(C)Cc1ccccc1[C@H]1CC[C@@]2(CCCCO2)CC1` [P050], in that order: below 50 nM, below 1000 nM and 250 to 2500 nM.
As to `CNCCN(C)Cc1ccccc1[C@H]1CC[C@]2(CCCCO2)CC1` [P051], the figures for the half-inhibitory concentration (IC50) in assay [1] and in assay [2] were below 50 nM and below 1000 nM, respectively. For the same molecule, the EC30 in assay [3] is 250 to 2500 nM.
Regarding `CNCCN(C)Cc1ccccc1[C@H]1CC[C@]2(CCCOC2)CC1` [P052], the IC50 in assay [1] was below 50 nM; in assay [2] it was below 1000 nM. Besides, in assay [3], the EC30 is 250 to 2500 nM.
For `CNCCN(C)Cc1ccccc1[C@H]1CC[C@@]2(CCCOC2)CC1` [P053] the same measures were below 50 nM, below 1000 nM and 250 to 2500 nM.
With `CCOCC1CC=C(c2ccccc2CN(C)CCNC)CC1` (centres unmarked) [P054], the IC50 is below 50 nM in assay [1] and below 1000 nM in assay [2]. Moreover, the EC30 in assay [3] was below 250 nM.
For `CNCCN(C)Cc1ccccc1[C@H]1CC[C@H](OC(C)C)CC1` [P056], in that order: below 50 nM, below 1000 nM and 250 to 2500 nM.
Turning to `CNCCN(C)Cc1ccccc1[C@H]1CC[C@@H](OC(C)C)CC1` [P057], the values for the IC50 in assay [1] and in assay [2] were below 50 nM and below 1000 nM, respectively. In assay [3], the EC30 was 250 to 2500 nM.
As for `CNCCN(C)Cc1ccccc1C1CCN(c2ccc(C(F)(F)F)cc2)CC1` [P069], the 50% inhibitory concentration (IC50) in assay [1] was below 50 nM; in assay [2], below 1000 nM. Also, in assay [3], the EC30 was 250 to 2500 nM.
`CNCCN(C)Cc1ncccc1C1CCN(CCc2ccccc2)CC1` [P074]: the IC50 is below 50 nM in assay [1] and below 1000 nM in assay [2]. The EC30 in assay [3] is 250 to 2500 nM.
For `CNCCN(C)Cc1ncccc1C1CCc2ccccc2CC1` [P075] the same measures were below 50 nM, below 1000 nM and 250 to 2500 nM.
On to `CNCCN(C)Cc1ncccc1C1CCN(c2cccc(C(F)F)c2)CC1` [P078], for which the figures for the concentration for half-maximal inhibition (IC50) in assay [1] and in assay [2] were below 50 nM and below 1000 nM, respectively. For the same molecule, the EC30 in assay [3] is below 250 nM.
For `CNCCN(C)Cc1ncccc1C1CCN(c2cc(C)cc(C)c2)CC1` [P079], the results for the half-maximal inhibitory concentration (IC50) in assay [1] and in assay [2] were below 50 nM and below 1000 nM, respectively. Moreover, the EC30 in assay [3] is below 250 nM.
For `CNCCN(C)Cc1nc(C)ccc1C1CCN(c2cccc(C)c2)CC1` [P080] the same measures were 50 to 500 nM, below 1000 nM and 250 to 2500 nM.
With `CCOCC1(COCC)CCC(c2nc(N)ccc2CN(C)CCNC)CC1` [P293, N1-((6-amino-2-(4,4-bis(ethoxymethyl)cyclohexyl)pyridin-3-yl)methyl)-N1,N2-dimethyle thane-1,2-diamine], the 50% inhibitory concentration (IC50) in assay [1] is 50 to 500 nM; in assay [2], below 1000 nM.
Regarding `CNCCN(C)Cc1ncccc1C1CCN(c2cccc(C(N)=O)c2)CC1` [P297], the IC50 is below 50 nM in assay [1] and at least 5000 nM in assay [2].
For `CNCCN(C)Cc1ncccc1C1CCN(c2ccccc2C(N)=O)CC1` [P298], in that order: below 50 nM and 1000 to 5000 nM.
As for `CCC1(C(=O)NC)CCN(c2cccnc2CN(C)CCNC)CC1` [P300], the half-inhibitory concentration (IC50) in assay [1] was 50 to 500 nM; in assay [2], at least 5000 nM.
For `CCOC(=O)C1CCN(c2cccnc2CN(C)CCNC)CC1` [P301] the same measures were below 50 nM and 1000 to 5000 nM.
For `CNCCN(C)Cc1ncccc1N1CCC(CC(=O)OC)CC1` [P302], in that order: below 50 nM and 1000 to 5000 nM.
On to `CNCCN(C)Cc1ncccc1N1CCC(=CC(=O)OC)CC1` [P303], for which the IC50 in assay [1] was below 50 nM; in assay [2], 1000 to 5000 nM.
For `CNCCN(C)Cc1ncccc1N1CCc2nc(OC)cc(OC)c2CC1` [P304], in that order: below 50 nM and 1000 to 5000 nM.
As to `CNCCN(C)Cc1ncccc1N1CCC(COc2cnc(C)nc2)CC1` [P305], the half-inhibitory concentration (IC50) in assay [1] is below 50 nM; in assay [2], below 1000 nM.
For `CNCCN(C)Cc1ncccc1N1CCC(COc2ccnc(C)n2)CC1` [P306] the same measures were 50 to 500 nM and 1000 to 5000 nM.
For `CNCCN(C)Cc1ncccc1N1CCC(Oc2cnc(C)nc2)CC1` [P313] the same measures were below 50 nM and 1000 to 5000 nM.
For `CNCCN(C)Cc1ncccc1N1CCC(Oc2ccnc(C)n2)CC1` [P314] the same measures were below 50 nM and at least 5000 nM.
For the molecule `CCC1(C(=O)O)CCN(c2cccnc2CN(C)CCNC)CC1` [P315], the values for the IC50 in assay [1] and in assay [2] were at least 500 nM and at least 5000 nM, respectively.
Regarding `CNCCN(C)Cc1ncccc1C1CCN(c2cnc(C#N)nc2)CC1` [P318], the values for the IC50 in assay [1] and in assay [2] were below 50 nM and at least 5000 nM, respectively.
For `CNCCN(C)Cc1ncccc1N1CCC(Nc2ccncn2)CC1` [P319] the same measures were below 50 nM and at least 5000 nM.
Turning to `CNCCN(C)Cc1ncccc1N1CCc2cnc(NC)nc2CC1` [P320], the IC50 was below 50 nM in assay [1] and at least 5000 nM in assay [2].
For `CNCCN(C)Cc1ncccc1C1CCN(c2cc(C)nc(N)n2)CC1` [P321] the same measures were below 50 nM and 1000 to 5000 nM.
Regarding `CNCCN(C)Cc1ncccc1C1CCN(c2ccnc(N)n2)CC1` [P326], the figures for the IC50 in assay [1] and in assay [2] were below 50 nM and 1000 to 5000 nM, respectively.
For `CNCCN(C)Cc1ncccc1N1CCc2nc(SC)nc(O)c2CC1` [P329], in that order: 50 to 500 nM and at least 5000 nM.
